In US4454139A, “α2 -Adrenoceptor antagonistic benzoquinolizines” (John Wyeth & Brother, Limited, priority 1980, dated 1984):

Experiments:
[1] = target: T1, postsynaptic (α1) α-adrenoceptor (Rattus norvegicus, UniProt P43140); assay: postsynaptic (α1) antagonistic activity on the isolated anococcygeus muscle of the rat (phenylephrine or methoxamine agonist); format: cell-based; conditions: rat anococcygeus muscle; phenylephrine or methoxamine as agonist; α1; read-out: pA2 (postsynaptic) (converted)
T1 construct: the isolated anococcygeus muscle of the rat; from tissue; host or cells: rat anococcygeus muscle (male rats, 250-360 g)
T1 sequence (P43140 1-466): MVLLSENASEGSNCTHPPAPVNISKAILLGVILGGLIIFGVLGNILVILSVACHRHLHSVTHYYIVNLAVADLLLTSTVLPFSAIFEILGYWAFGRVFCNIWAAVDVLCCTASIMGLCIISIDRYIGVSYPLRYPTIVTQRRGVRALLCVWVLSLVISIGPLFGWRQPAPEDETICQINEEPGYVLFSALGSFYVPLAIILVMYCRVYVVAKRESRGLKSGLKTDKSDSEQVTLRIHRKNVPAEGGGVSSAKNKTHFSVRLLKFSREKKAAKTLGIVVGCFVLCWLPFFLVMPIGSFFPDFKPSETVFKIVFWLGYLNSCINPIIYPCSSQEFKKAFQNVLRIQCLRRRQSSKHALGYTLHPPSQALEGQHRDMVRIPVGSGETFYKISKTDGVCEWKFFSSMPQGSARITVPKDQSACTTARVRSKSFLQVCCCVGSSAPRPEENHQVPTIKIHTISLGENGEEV
Excerpt: (§1) The postsynaptic(α1)antagonistic activity can be evaluated by a number of different methods. One method involves assessing the activity on the isolated anococcygeus muscle of the rat. The method is based on that of Gillespie, Br.J.Pharmac., 1972, 45, 404-416. In the procedure male rats (250-360 g) are killed by a blow on the head and bled. The two anococcygeus muscles are removed from their position in the midline of the pelvic cavity, where they arise from the upper coccygeal vertebrae. The muscles are suspended in 5 ml organ baths in Krebs solution containing 10^-4 M ascorbic acid, to prevent drug oxidation. The tissues are gassed with a 95% oxygen, 5% CO2 mixture and maintained at 37°. Longitudinal muscle contractions are recorded using isotonic transducers. Cumulative dose response curves are then obtained to phenylephrine or in some cases methoxamine, both agents being postsynaptic alpha adrenoceptor agonists. The concentration range of phenylephrine or methoxamine used is 0.02 to 0.8 μg.ml^-1. The agonist is then washed from the bath and the test drug added to the bathing medium at a concentration of 10^-6 M. After 30 min. equilibration with the test drug a further agonist dose response curve is obtained. The washing, equilibration and agonists dosing procedures are then repeated using 10^-5 M and 10^-4 M solutions of the test drug. Estimates of the pA2 value for the test drug as an antagonist of phenylephrine or methoxamine were made from the agonist dose-ratios using the method of Arunlakshana & Schild, Br.J.Pharmac.Chemother., 1959, 14, 48-58.

[2] = system: postsynaptic (α1) α-adrenoceptor; assay: as above; format: cell-based
Excerpt: as §1

[3] = target: T2, α2 (presynaptic α)-adrenoceptor (Rattus norvegicus, UniProt P22909); assay: α2-adrenoceptor antagonistic activity on the rat field stimulated vas deferens preparation (clonidine agonist); format: cell-based; conditions: clonidine as agonist, Arunlakshana & Schild; for Kb: read-out: pA2 (α2) (converted); for pA2 (α2): 90 min
T2 construct: from tissue; host or cells: rat vas deferens (desheathed, field stimulated)
T2 sequence (P22909 1-465): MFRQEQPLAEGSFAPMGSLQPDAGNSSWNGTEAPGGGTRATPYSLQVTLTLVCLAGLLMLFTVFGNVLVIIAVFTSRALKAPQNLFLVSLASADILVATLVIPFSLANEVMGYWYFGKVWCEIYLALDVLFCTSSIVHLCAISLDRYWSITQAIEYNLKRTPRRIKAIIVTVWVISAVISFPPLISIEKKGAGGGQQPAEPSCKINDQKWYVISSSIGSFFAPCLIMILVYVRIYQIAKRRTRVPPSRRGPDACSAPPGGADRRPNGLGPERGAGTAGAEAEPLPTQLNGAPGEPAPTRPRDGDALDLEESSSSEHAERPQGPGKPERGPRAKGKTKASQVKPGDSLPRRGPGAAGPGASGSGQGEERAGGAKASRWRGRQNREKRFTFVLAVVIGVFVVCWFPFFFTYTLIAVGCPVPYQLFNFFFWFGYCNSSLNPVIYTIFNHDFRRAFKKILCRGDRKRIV
Description: The compounds of the invention were tested for their α2 -adrenoceptor antagonistic activity on the rat field stimulated vas deferens preparation using a modification of the method of Drew, Eur.J.Pharmac., 1977, 42, 123-130. The procedure is described below. […] from sexually mature rats were suspended in a 6 ml organ bath in Krebs solution at 37° and bubbled with 5% CO2 in oxygen. Platinum ring electrodes were positioned above and below the tissue for field stimulation, the stimulus parameters being 0.1 Hz 1 ms pulse width at supramaximal voltage. Twitch responses were recorded isotonically with a 0.5 g loading. […] After washing out clonidine, the twitch response quickly recovered and an antagonist was then introduced into the Krebs reservoir. Clonidine concentration-response curves were repeated 90 min after introduction of the antagonist. The concentration of clonidine producing 50% inhibition of twitch before and after introduction of antagonist were obtained and the dose-ratio for clonidine was calculated. Various concentrations of the antagonists were used. […] Chemother., 1959, 14, 48-58 and the values of pA2 and slope were calculated.

human blood platelets = assay: inhibition of adrenaline-induced aggregation in vitro of human blood platelets; format: cell-based
[4] = system: hyperglycaemia induced by the α2 agonist clonidine; assay: inhibition of clonidine-induced hyperglycaemia in rats; format: in vivo, rat; conditions: 10 mg/kg, clonidine 15 μg/kg subcutaneous
[5] = system: rats rendered hypertensive by implantation of desoxycorticosterone acetate; assay: hypotensive activity in rats rendered hypertensive by implantation of desoxycorticosterone acetate; format: in vivo, rat

Row | SMILES | Kb [1] | Kb [3] | pA2 (α2) [3] | α2 selectivity [2] | inhibition of the aggregation in vitro of human blood platelets induced by adrenaline (human blood platelets) | inhibition of the hyperglycaemia induced by clonidine [4] | hypotensive activity [5]
1 | COc1ccc(S(=O)(=O)N(C)[C@@H]2CCN3CCc4ccccc4[C@@H]3C2)cc1 (relative stereo) [G, N-Methyl-N-(1,3,4,6,7,11bα-hexahydro-2H-benzo[a]quinolizin-2β-yl)-4-methoxybenzenesulphonamide] | 0.316 µM | 0.00794 µM | – | 40 | – | – | –
2 | CN([C@@H]1CCN2CCc3ccccc3[C@@H]2C1)S(=O)(=O)c1ccc(Cl)c(Cl)c1 (relative stereo) [J, N-Methyl-N-(1,3,4,6,7,11bα-hexahydro-2H-benzo[a]quinolizin-2β-yl)-3,4-dichlorobenzenesulphonamide] | 3.31 µM | 0.0316 µM | – | 93 | – | – | –
3 | O=C(Nc1ccccc1)NC1CCN2CCc3ccccc3C2C1 (centres unmarked) [1-(1,3,4,6,7,11b-hexahydro-2H benzo[a]quinolizin-2yl)-3-phenyl urea, reference compound] | – | 3.98 µM | – | – | – | – | –
4 | O=S(=O)(NC1CCN2CCc3ccccc3C2C1)c1ccccc1 (stereo not drawn) [2β-phenylsulphonamido-1,3,4,6,7,11b-hexahydro-2H--benzo[a]quinolizine, reference compound] | – | – | 6.4 | – | – | – | –
5 | COc1cc2c(cc1OC)[C@@H]1C[C@H](N(C)S(C)(=O)=O)CCN1CC2 (relative stereo) [N--methyl-N--(9,10-dimethoxy-1,3,4,6,7,11bα-hexahydro-2H--benzo[a]quinolizin-2β-yl)-methanesulphonamide, reference compound] | – | 0.158 µM | – | – | – | – | –
6 | CS(=O)(=O)NC1CCN2CCc3ccccc3C2C1 (centres unmarked) [2-methanesulphonamido-1,3,4,6,7,11b-hexahydro-2H--benzo[a]quinolizine, reference compound] | – | 0.126 µM | – | – | – | – | –
7 | S=C(Nc1ccccc1)NC1CCN2CCc3ccccc3C2C1 (centres unmarked) [1-(1,3,4,6,7,11b-hexahydro-2H--benzo[a]quinolizin-2yl)-3-phenylthiourea, reference compound] | – | 2.51 µM | – | – | – | – | –
8 | CN([C@@H]1CCN2CCc3ccccc3[C@@H]2C1)S(=O)(=O)c1ccc(Cl)cc1 (relative stereo) [H, N-Methyl-N-(1,3,4,6,7,11bα-hexahydro-2H-benzo[a]quinolizin-2β-yl)-4-chlorobenzenesulphonamide] | 0.813 µM | 0.0251 µM | – | 32 | – | – | –

More lines, main results first:

Row | Kb [1] | Kb [3] | pA2 (α2) [3] | SMILES | α2 selectivity [2] | inhibition of the aggregation in vitro of human blood platelets induced by adrenaline (human blood platelets) | inhibition of the hyperglycaemia induced by clonidine [4] | hypotensive activity [5]
9 | 0.724 µM | 0.00501 µM | – | CCCS(=O)(=O)N(C)[C@@H]1CCN2CCc3ccccc3[C@@H]2C1 (relative stereo) [C, N-Methyl-N-(1,3,4,6,7,11bα-hexahydro-2H-benzo[a]quinolizin-2β-yl)propan-1-sulphonamide] | 144 | inhibit the aggregation | – | –
10 | 0.324 µM | 0.00316 µM | – | CC(C)CS(=O)(=O)N(C)[C@@H]1CCN2CCc3ccccc3[C@@H]2C1 (relative stereo) [L, N-Methyl-N-(1,3,4,6,7,11bα-hexahydro-2H-benzo[a]quinolizin-2β-yl)-isobutanesulphonamide] | 93 | – | inhibited the hyperglycaemia | –
11 | – | 0.1 µM | – | CCCN([C@@H]1CCN2CCc3ccccc3[C@@H]2C1)S(C)(=O)=O (relative stereo) [N--(n-Propyl)-N--(1,3,4,6,7,11bα-hexahydro-2H--benzo[a]quinolizin-2β-yl)methanesulphonamide, reference compound] | – | – | – | –
12 | 1.12 µM | 0.02 µM | – | CN([C@@H]1CCN2CCc3ccccc3[C@@H]2C1)S(C)(=O)=O (relative stereo) [A, N-Methyl-N-(1,3,4,6,7,11bα-hexahydro-2H-benzo[a]quinolizin-2β-yl)methanesulphonamide] | 56 | inhibit the aggregation | inhibited the hyperglycaemia | do not possess substantial hypotensive activity
13 | 0.537 µM | 0.0126 µM | – | Cc1ccccc1S(=O)(=O)N(C)[C@@H]1CCN2CCc3ccccc3[C@@H]2C1 (relative stereo) [I, N-Methyl-N-(1,3,4,6,7,11bα-hexahydro-2H-benzo[a]quinolizin-2β-yl)-2-methylbenzenesulphonamide] | 40 | – | – | –
14 | 0.251 µM | 0.0126 µM | – | CCCCS(=O)(=O)N(C)[C@@H]1CCN2CCc3ccccc3[C@@H]2C1 (relative stereo) [K, N-Methyl-N-(1,3,4,6,7,11bα-hexahydro-2H-benzo[a]quinolizin-2β-yl)-n-butanesulphonamide] | 19 | – | – | –
15 | 0.468 µM | 0.00794 µM | – | Cc1ccc(S(=O)(=O)N(C)[C@@H]2CCN3CCc4ccccc4[C@@H]3C2)cc1 (relative stereo) [F, N-Methyl-N-(1,3,4,6,7,11bα-hexahydro-2H-benzo[a]quinolizin-2β-yl)toluene-4-sulphonamide] | 59 | – | – | –
16 | – | 0.316 µM | – | CCCS(=O)(=O)N[C@@H]1CCN2CCc3ccccc3[C@@H]2C1 (relative stereo) [2β-(n-propanesulphonamido-1,3,4,6,7,11bα-hexahydro-2H--benzo[a]quinolizine, reference compound] | – | – | – | –
17 | 0.562 µM | 0.0158 µM | – | CCN([C@@H]1CCN2CCc3ccccc3[C@@H]2C1)S(C)(=O)=O (relative stereo) [E, N--Ethyl-N--(1,3,4,6,7,11bα-hexahydro-2H--benzo[a]quinolizin-2-62-yl)methanesulphonamide] | 35.5 | – | – | –
18 | 0.457 µM | 0.00398 µM | – | CN([C@@H]1CCN2CCc3ccccc3[C@@H]2C1)S(=O)(=O)c1ccccc1 (relative stereo) [D, N-methyl-N-(1,3,4,6,7,11bα-hexahydro-2H-benzo[a]quinolizin-2β-yl)benzenesulphonamide] | 102 | – | inhibited the hyperglycaemia | –
19 | – | – | 5.3 | CCS(=O)(=O)NC1CCN2CCc3ccccc3C2C1 (centres unmarked) [2βethanesulphonamido-1,3,4,6,7,11b-hexahydro-2H--benzo[a]quinolizine, reference compound] | – | – | – | –
20 | 0.676 µM | 0.02 µM | – | CCS(=O)(=O)N(C)[C@@H]1CCN2CCc3ccccc3[C@@H]2C1 (relative stereo) [B, N-Methyl-N-(1,3,4,6,7,11bα-hexahydro-2H-benzo[a]quinolizin-2β-yl)ethanesulphonamide] | 34 | – | – | –
